# Measured values as given in patent US9029337B2, “Modulation of factor 7 expression” (Isis Pharmaceuticals, Inc., priority 2007, dated 2015).
# e = 2'-O-(2-methoxyethyl) (MOE); d = 2'-deoxy (DNA)
# What was measured:
# Format in all cases: in vivo, mouse
# murine Factor 7 mRNA [1] = assay: Multiple dose pharmacokinetic assay: liver Factor 7 mRNA in mice; settings: for % Inhibition: liver Factor 7 mRNA, mice, relative to PBS control
# Method: The duration of action of multiple doses of ISIS 403102 on antisense inhibition of murine Factor 7 and clotting time was evaluated. In a first group of mice, 25 mg/kg of ISIS 403102 was injected subcutaneously as a single dose. Mice from the first group were sacrificed on days 1 and 3 after the single dose. In a second group of mice, 25 mg/kg of ISIS 403102 was administered subcutaneously twice a week for 1 week. Mice from the second group were sacrificed on day 3 after the last dose of ISIS 403102 was administered. In a third group of mice, 25 mg/kg of ISIS 403102 was administered subcutaneously twice a week for 2 weeks. Mice from the third group were sacrificed on day 3 after the last dose of ISIS 403102 was administered. In a fourth group of mice, 25 mg/kg of ISIS 403102 was administered subcutaneously twice a week for 3 weeks. Mice from the fourth group were sacrificed on days 2, 7, 14, 28, 42, and 56 after the last dose of ISIS 403102 was administered. A control group of 3 mice was injected with PBS in a single dose. Mice from the control group were sacrificed 1 day later. Mice in all groups were sacrificed by cervical dislocation following anesthesia with 150 mg/kg ketamine mixed with 10 mg/kg xylazine administered by intraperitoneal injection. Liver was harvested for RNA analysis and plasma was collected for clotting analysis (PT and aPTT) for mice in all groups.
# RNA was extracted from liver tissue for quantitative RT-PCR analysis of Factor 7. Results are presented as percent inhibition of Factor 7, relative to PBS control. […] Inhibition increased through day 3 in the single dose treatment group. […] Inhibition increased through day 3 in the 2 dose treatment group.
# [2] = system: extrinsic pathway of blood coagulation; assay: Prothrombin Time (PT) in platelet poor plasma of treated BALB/c mice
# Method: (§1) Prothrombin Time (PT) and Activated Partial Thromboplastin Time (aPTT) were measured using platelet poor plasma (PPP) from mice treated with ISIS 403102. PT and aPTT values provided in Table 20 are reported as International Normalized Ratio (INR) values. INR values for PT and aPTT were determined by dividing the PT or aPTT value for the experimental group by the PT or aPTT for the PBS treated group. This ratio was then raised to the power of the International Sensitivity Index (ISI) of the tissue factor used.
# as §1, with “in Table 22 are reported” for “in Table 20 are reported”, “experimental group (i.e. 50 mg/kg treatment with ISIS 403102) by the” for “experimental group by the”
# as §1, with “in Table 24 are reported” for “in Table 20 are reported”, “experimental group (i.e. 50 mg/kg treatment with ISIS 403102) by the” for “experimental group by the”
# murine Factor 7 mRNA [3] = assay: Single dose pharmacokinetic assay: liver Factor 7 mRNA in BALB/c mice; settings: single dose 50 mg/kg; for % Inhibition: liver Factor 7 mRNA, BALB/c mice
# Method: The half-life and duration of action of ISIS 403102 in mice was evaluated. A group of 27 BALB/c mice was injected with 50 mg/kg of ISIS 403102. Three mice from the group were sacrificed at days 1, 2, 3, 4, 6, 8, 12, 24, and 56 after the single dose of ISIS 403102 was administered. A control group of 3 mice was injected with a single dose of PBS, and mice in this group were sacrificed on day 1. Mice in all groups were sacrificed by cervical dislocation following anesthesia with 150 mg/kg ketamine mixed with 10 mg/kg xylazine administered by intraperitoneal injection. Liver was harvested for RNA analysis and plasma was collected for clotting analysis (PT and aPTT).
# RNA was extracted from liver tissue for real-time RT-PCR analysis of Factor 7. Results are presented as percent inhibition of Factor 7, relative to PBS control. […] Results are presented as percent inhibition of Factor 7, relative to control.
sequence,measurement,setting,value
"CCATAGAACAGCTTCACAGG (sugars from the 5' end e5 d10 e5, backbone and methylation of C not given here) [ISIS 403102]",Factor 7 inhibition,"murine Factor 7 mRNA [1]; 6 doses of 25 mg/kg, days 14, 28, 42 and 56 after last dose",declined progressively
same,% Inhibition,"murine Factor 7 mRNA [1]; 25 mg/kg subcutaneously twice a week, 2 doses, 3 days after last dose",86%
same,% Inhibition,"murine Factor 7 mRNA [1]; 25 mg/kg subcutaneously twice a week, 4 doses, 3 days after last dose",91%
same,% Inhibition,"murine Factor 7 mRNA [1]; 25 mg/kg subcutaneously twice a week, 6 doses, 2 days after last dose",83%
same,% Inhibition,"murine Factor 7 mRNA [1]; 25 mg/kg subcutaneously twice a week, 6 doses, 7 days after last dose",88%
same,% Inhibition,"murine Factor 7 mRNA [1]; 25 mg/kg subcutaneously twice a week, 6 doses, 14 days after last dose",64%
same,% Inhibition,"murine Factor 7 mRNA [1]; 25 mg/kg subcutaneously twice a week, 6 doses, 28 days after last dose",33%
same,% Inhibition,"murine Factor 7 mRNA [1]; 25 mg/kg subcutaneously twice a week, 6 doses, 42 days after last dose",5%
same,% Inhibition,"murine Factor 7 mRNA [1]; 25 mg/kg subcutaneously twice a week, 6 doses, 56 days after last dose",11%
same,% Inhibition,"murine Factor 7 mRNA [1]; 25 mg/kg subcutaneously, 1 dose, 1 day after last dose",44%
same,% Inhibition,"murine Factor 7 mRNA [1]; 25 mg/kg subcutaneously, 1 dose, 3 days after last dose",74%
same,inhibition of Factor 7 mRNA,murine Factor 7 mRNA [1]; single dose 25 mg/kg subcutaneously,inhibition of Factor 7 as early as day 1
same,PT INR,"[2]; BALB/c mice, 5 mg/kg, relative to PBS treated group",1.09
same,PT INR,"[2]; BALB/c mice, 10 mg/kg, relative to PBS treated group",1.33
same,PT INR,"[2]; BALB/c mice, 25 mg/kg, relative to PBS treated group",2.33
same,PT INR,"[2]; BALB/c mice, 50 mg/kg, 1 dose, 1 day after last dose, relative to PBS group",1.04 INR
same,PT INR,"[2]; BALB/c mice, 50 mg/kg, 1 dose, 3 days after last dose, relative to PBS group",1.20 INR
same,PT INR,"[2]; BALB/c mice, 50 mg/kg, 2 doses, 3 days after last dose, relative to PBS group",1.43 INR
same,PT INR,"[2]; BALB/c mice, 50 mg/kg, 4 doses, 3 days after last dose, relative to PBS group",2.13 INR
same,PT INR,"[2]; BALB/c mice, 50 mg/kg, 6 doses, 2 days after last dose, relative to PBS group",1.64 INR
same,PT INR,"[2]; BALB/c mice, 50 mg/kg, 6 doses, 7 days after last dose, relative to PBS group",2.08 INR
same,PT INR,"[2]; BALB/c mice, 50 mg/kg, 6 doses, 14 days after last dose, relative to PBS group",1.37 INR
same,PT INR,"[2]; BALB/c mice, 50 mg/kg, 6 doses, 28 days after last dose, relative to PBS group",0.96 INR
same,PT INR,"[2]; BALB/c mice, 50 mg/kg, 6 doses, 42 days after last dose, relative to PBS group",1.00 INR
same,PT INR,"[2]; BALB/c mice, 50 mg/kg, 6 doses, 56 days after last dose, relative to PBS group",0.99 INR
same,PT INR,"[2]; BALB/c mice, 50 mg/kg, relative to PBS treated group",4.37
same,PT INR,"[2]; BALB/c mice, single dose 50 mg/kg, day 1",1.11
same,PT INR,"[2]; BALB/c mice, single dose 50 mg/kg, day 2",1.64
same,PT INR,"[2]; BALB/c mice, single dose 50 mg/kg, day 3",1.81
same,PT INR,"[2]; BALB/c mice, single dose 50 mg/kg, day 4",1.97
same,PT INR,"[2]; BALB/c mice, single dose 50 mg/kg, day 6",1.59
same,PT INR,"[2]; BALB/c mice, single dose 50 mg/kg, day 8",1.55
same,PT INR,"[2]; BALB/c mice, single dose 50 mg/kg, day 12",1.30
same,PT INR,"[2]; BALB/c mice, single dose 50 mg/kg, day 24",1.12
same,PT INR,"[2]; BALB/c mice, single dose 50 mg/kg, day 56",1.10
same,PT compared to the control,"[2]; Example 11, 5-50 mg/kg twice a week for 3 weeks",significantly prolonged
same,PT,"[2]; Example 13, 6 doses, from day 7 to day 56",decreased
same,PT INR,"[2]; single dose 50 mg/kg, day 1",1.11
same,PT INR,"[2]; single dose 50 mg/kg, day 4",1.97
same,PT INR,"[2]; single dose 50 mg/kg, day 56",1.10
same,% Inhibition,"murine Factor 7 mRNA [3]; day 1, relative to PBS control",61%
same,% Inhibition,"murine Factor 7 mRNA [3]; day 2, relative to PBS control",87%
same,% Inhibition,"murine Factor 7 mRNA [3]; day 3, relative to PBS control",92%
same,% Inhibition,"murine Factor 7 mRNA [3]; day 4, relative to PBS control",92%
same,% Inhibition,"murine Factor 7 mRNA [3]; day 6, relative to PBS control",86%
same,% Inhibition,"murine Factor 7 mRNA [3]; day 8, relative to PBS control",80%
same,% Inhibition,"murine Factor 7 mRNA [3]; day 12, relative to PBS control",72%
same,% Inhibition,"murine Factor 7 mRNA [3]; day 24, relative to PBS control",11%
same,% Inhibition,"murine Factor 7 mRNA [3]; day 56, relative to PBS control",0%
same,duration of action,murine Factor 7 mRNA [3],at least 24 days
same,peak effect,murine Factor 7 mRNA [3],~4 days
same,inhibition of Factor 7 mRNA,murine Factor 7 mRNA [3]; day 4,92%
same,inhibition of Factor 7 mRNA,murine Factor 7 mRNA [3]; day 24,11%
same,Factor 7 mRNA levels,murine Factor 7 mRNA [3]; day 56,equal to that of the PBS control
